“Also recorded” adds a separate entry of the source.
Assays:
Atoh1-induced neurons [1] = type: cell-based, human
[2] = test system: Atoh1-induced DA neurons derived from human iPSCs; type: cell-based; settings: 40 μM and 100 μM for 15 minutes
Method: Neuron culture medium was changed to neurobasal medium before treatment. 6-OHDA was freshly prepared in vehicle solution (ascorbic acid (0.15%) in H2O) and quickly added to the neuron culture. Control cells were treated with vehicle solution alone. After 15 min at 37° C., the medium was removed and neurons were gently washed twice with Neurobasal Medium. 200 μl neuron culture medium (Neurobasal Medium with B27 Supplement) was added to each well and further incubated for 24 h. Cytotoxicity induced by 6-OHDA was measured using LDH Cytotoxicity Detection Kit (Roche) following the manufacturer's protocol. The percentage cytotoxicity was calculated using the following equation: Cytotoxicity (%)=(Experiment Value−Low Control)/(High Control−Low Control)×100. (Low control: culture medium; High control: total cell lysate).
6-hydroxydopamine (6-OHDA) is a neurotoxin widely used to induce neurotoxicity both in vivo and in vitro to model DA neuron loss in PD pathogenesis. […] Here, we tested the response of Atoh1-induced DA neurons to 6-OHDA treatment. […] Thus, Atoh1-induced DA neurons derived from human iPSCs are sensitive to 6-OHDA treatment at a concentration that selectively damages primary DA neurons isolated from substantia nigra.

[3] = test system: primary DA neurons from substantia nigra; settings: 6-OHDA 40 μM; cited from earlier work
Atoh1-iPSCs = assay: Dox-inducible Atoh1 expression measured by qRT-PCR; type: cell-based, human; settings: Dox treatment for 2 days
Method: Total RNA was extracted using the RNeasy Mini kit (Qiagen). Reverse transcription was performed using MuLV reverse transcriptase (Applied biosystems) and Oligo(dT) primers. qRT-PCR was performed using SYBR Green PCR Master Mix (Applied Biosystems) and IQ5 RT-PCR detection system (Bio-rad). Relative expression of each gene was normalized to the 18S rRNA. To further optimize the Atoh1-mediated differentiation strategy, we asked what is the minimum time of Atoh1 induction for successful neuronal conversion. Equal numbers of Atoh1-iPSCs received different durations of Dox treatment (1 to 5 days), after which cells were replated and allowed to mature in vitro for additional 30 days. […] In contrast, Dox treatment for 2 to 5 days successfully differentiated iPSCs into neurons expressing TUJ1 and MAP2 (FIG. 9). […] To compare the level of neurogenic signaling before and after silencing ectopic Atoh1 expression, we treated Atoh1-iPSCs with Dox for 2 days and then withdrew Dox for 3 days (FIGS. 2J and 2K).

Atoh1-induced neurons [4] = assay: Current-clamp recording, negative current injection: hyperpolarization sag and rebound action potentials; type: cell-based, human; settings: ML252 5 μM
Atoh1-induced DA neurons = type: cell-based, human

Compound: Nc1ccncc1 [4-AP]
- effect on potassium current (Atoh1-induced neurons [1]; 4-AP 25 μM, together with TTX, voltage-clamp): significantly attenuated

Compound: NCCc1cc(O)c(O)cc1O [6-OHDA, 6-hydroxydopamine]
- neuron death by LDH Cytotoxicity assay ([2]; LDH after 24 h): neuron death was also confirmed
- morphological signs of neuron death (cell condensation, neurite fragmentation) ([2]; differentiation day 36, read 24 hours after treatment): caused morphological signs of neuron death
- DA neuron loss in rat substantia nigra neuron cultures [3]: causes selective DA neuron loss without affecting GABA neurons

Compound: C[C@H]1c2cccc(O)c2C(=O)C2=C(O)[C@]3(O)C(=O)C(C(N)=O)=C(O)[C@@H](N(C)C)[C@@H]3[C@@H](O)[C@@H]21 [Dox, Doxycycline]
- Atoh1 up-regulation by qRT-PCR versus control (Atoh1-iPSCs): 49 fold

Compound: CC[C@H](C(=O)Nc1ccccc1N1CCCC1)c1ccccc1 [ML252]
- effect on hyperpolarization sag and rebound action potentials (Atoh1-induced neurons [4]): dampened; also recorded: blocked

Compound: NC1=N[C@H](O)[C@H]2[C@H]3O[C@]4(O)O[C@@H]([C@@H](O)[C@@]2(N1)[C@@H]4O)[C@]3(O)CO [TTX, tetrodotoxin]
- effect on train of evoked action potentials (Atoh1-induced DA neurons): suppressed; also recorded: completely blocked
- time to recovery of action potentials after TTX washout (Atoh1-induced DA neurons): 17 min
- effect on sodium current (Atoh1-induced neurons [1]): significantly attenuated

Source: patent US11104881B2, “Method for highly efficient conversion of human stem cells to lineage-specific neurons” (THE JOHNS HOPKINS UNIVERSITY, priority 2013, dated 2021)
